From patent publication US9974776B2, “Estrogen receptor beta agonists for use in treating mesothelioma” (Karo Pharma AB, priority 2013, dated 2018)
Where two headings read alike, the source gives them in different places.

How the values were obtained:
MET5A cells = assay: Proliferation assay in non-malignant mesothelial MET5A cells; assay type: cell-based; details: 24 hours treatment
Method: (§1) Cells were seeded at a density of 10×10^4 cells/well in 6-well plates in RPMI medium supplemented with 10% FBS, 100 μg/ml streptomycin and 10 μg/ml penicillin and incubated over-night at 37° C. in a humidified environment containing 5% CO2 to allow adherence. Following treatment cells were trypsinized and stained with Trypan blue. The number of cells considered viable (unstained cells) was counted in a Bürker haemocytometer within 5 minutes after staining.
Cell cultures were pretreated with Compound (I) for 1-16 hours (depending on experiment) followed by wash-off and then replenished with normal growth medium±cisplatin, pemetrexed or cisplatin/pemetrexed. Total incubation time was 24-72 hours (depending on experiment). Control cultures were maintained in normal growth medium without added drug. The number of viable cells was determined as described for the proliferation assay.

PARP1 cleavage = assay: Western blot of PARP1 cleavage in REN cells; assay type: cell-based, human; details: agent alone
Method: Cells were extracted with 1% NP-40 lysis buffer (1% NP-40, 150 mM NaCl, 50 mM Tris-HCl pH 8.5 mM EDTA, 10 mM NaF, 10 mM Na4P2O7, 0.4 mM Na3VO4) with freshly added protease inhibitors (10 μg/ml leupeptin, 4 μg/ml pepstatin and 0.1 Unit/ml aprotinin). For protein extraction from tissues, ˜100 mg of each sample were homogenized, using a Potter-Elvehjem homogenizer device, in 1% NP-40 lysis buffer. Lysates were centrifuged at 13.000×g for 10 minutes at 4° C. and the supernatants were collected and assayed for protein concentration with the Bio-Rad protein assay method.
Proteins were separated by SDS-PAGE under reducing conditions. Following SDS-PAGE, proteins were transferred to nitrocellulose, reacted with specific antibodies and then detected with peroxidase-conjugate secondary antibodies and chemioluminescent ECL reagent. Densitometric analysis was performed using the GS 250 Molecular Image (Bio-Rad).
Levels of PARP1, cleaved PARP1, AKT and phosphorylated AKT in REN cells treated for 24 hours with cisplatin (25, 50 and 100 μM) or pre-treated 2 hours with Compound (I) (10 nM) followed by wash-off and continued growth in normal medium±cisplatin (25, 50 and 100 μM), for an additional 24 hours were also determined by Western blot analysis and relative densitometry. Total AKT and Tubulin staining were used for normalization. PARP1 cleavage was analysed as it is an indicator of apoptotic cell death. As increased AKT activity has been implicated in the control of proliferation, apoptosis and cisplatin resistance (Pinton G., et al, PLoS One (2012) 7:e36856), AKT activation status following different treatments was also analysed.

REN cells = assay: Proliferation assay (Trypan blue viable cell count; wash-off and add-on experiments) in REN cells; assay type: cell-based, human; details: concentrations used in Example 2(a), said in b159 to be the respective IC50 concentrations, read-out: IC50 concentration in REN cells
Method: as §1
Control cultures were maintained in normal growth medium without added drug. The number of viable cells was determined as described for the proliferation assay.
In the add-on experiments the second drug was added directly to the cell culture medium without wash-off of the first drug. […] Control cultures were maintained in normal growth medium without added drug. The number of viable cells was determined as described for the proliferation assay.

| Compound | IC50 (MET5A cells) [µM] | PARP1 cleavage, single agent (PARP1 cleavage) | IC50 (REN cells) [µM] | IC50 (REN cells; Homo sapiens) [µM] |
| --- | --- | --- | --- | --- |
| N.N.[Cl][Pt][Cl] [cisplatin, reference compound] | 25 | neither cisplatin nor Compound (I) alone resulted in significant PARP1 cleavage | 100 |  |
| Nc1nc2[nH]cc(CCc3ccc(C(=O)N[C@@H](CCC(=O)O)C(=O)O)cc3)c2c(=O)[nH]1 [pemetrexed, reference compound] |  |  |  | 22 |
